Results reported in patent US10624881B2, “Methods for inducing apoptosis in cancer cells” (Health Research, Inc., priority 2015, dated 2020).
Where two headings read alike, the source gives them in different places.

Columns and labels:
[1] = system: p53 pathway in HCT8 cells; conditions: Western blot, time- and concentration-dependent
[2] = system: NALM6; assay: Cell proliferation assay, NALM6 cells; format: cell-based; conditions: 72 h, read-out: IC50 of Compounds, NALM6
[3] = system: p53 pathway in NALM6 cells
[4] = system: NALM6 cells; assay: Flow cytometry of sub-G1 population in NALM6 cells (PI staining); format: cell-based
Text: Sub-G1 fractions of each treatment were shown.
Proliferation and apoptosis assays.

[5] = system: RL4RH cells; assay: RRCL proliferation assay, drug-resistant lymphoma RL4RH cells; format: cell-based; conditions: for IC50: 3-day treatment
[6] = system: mouse bone marrow cells; conditions: for IC50: read-out: IC50, CFU-GM, mouse bone marrow cells, 7-day continuous treatment
Method: For the bone marrow toxicity assay, the following method was used. 400 μL of murine marrow mononuclear cells (2.0×10^5/mL) in IMDM containing 20% FBS, 10 units/mL recombinant murine GM-CSF, 10% of a 10× drug solution or control solution (DMSO), and 0.3% agarose were pipetted into microwells containing a 0.4-mL underlayer of IMDM and 0.3% agarose. The cultures were allowed to gel at 4° C. for 15 min and incubated at 37° C. in a fully humidified atmosphere of 5% CO2 in air for 7 days. CFU-GM colonies (aggregates of ≥40 cells) were counted with an inverted microscope using phase contrast. Percent survivals were calculated as 100× (the number of colonies in the drug-treated groups divided by the number of colonies in the vehicle control-treated group). IC50 values were determined.

[7] = system: NALM6-shp53; assay: Cell proliferation assay, NALM6-shp53 cells (p53 shRNA knockdown); format: cell-based
Method: Proliferation and apoptosis assays. Growth inhibition assays and apoptosis assays were carried out as described previously.

[8] = system: Raji4RH cells; assay: RRCL proliferation assay, drug-resistant lymphoma Raji4RH cells; format: cell-based; conditions: for IC50: 3-day treatment
[9] = target: T1, Mdm2-MdmX E3 ligase (Homo sapiens, UniProt O15151); assay: In vitro MdmX-stimulated Mdm2 autoubiquitination (Western blot); format: biochemical; conditions: compound 10 μM
T1 construct: FLAG; made in house; host or cells: insect cells (baculovirus)
T1 sequence (O15151 1-490): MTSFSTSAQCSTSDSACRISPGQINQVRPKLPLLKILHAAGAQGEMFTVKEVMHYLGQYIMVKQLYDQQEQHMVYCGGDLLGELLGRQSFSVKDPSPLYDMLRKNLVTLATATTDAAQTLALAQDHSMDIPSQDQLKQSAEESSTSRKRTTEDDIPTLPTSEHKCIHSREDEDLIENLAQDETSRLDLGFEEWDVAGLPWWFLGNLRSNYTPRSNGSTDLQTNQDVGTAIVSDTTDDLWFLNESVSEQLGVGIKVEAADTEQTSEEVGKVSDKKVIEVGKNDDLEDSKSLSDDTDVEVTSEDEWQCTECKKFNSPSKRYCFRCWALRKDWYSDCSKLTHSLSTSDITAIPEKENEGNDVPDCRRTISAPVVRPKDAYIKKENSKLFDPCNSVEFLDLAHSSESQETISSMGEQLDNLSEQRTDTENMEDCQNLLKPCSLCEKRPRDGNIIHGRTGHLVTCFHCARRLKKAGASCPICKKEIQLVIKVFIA
Text: (§1) Materials and Methods. Plasmids, Protein Purification, and Chemical Reagents. FLAG-MdmX and HA-Mdm2 (human) constructs for insect cell expression and protein purification were described previously. HA-ubiquitin construct was generated by inserting HA-tag to the N-terminus of ubiquitin in pET28a vector. The mammalian expression plasmid pcDNA3.1-HdmX was a gift from Dr. Gokul Das (Roswell Park Cancer Institute).
In vitro validation assays by Mdm2 autoubiquitination and p53 ubiquitination by Mdm2-MdmX and NEDD4-1 autoubiquitination. In order to test the compound specificity, we used two sets of ubiquitination reaction. One is MdmX stimulated Mdm2 autoubiquitination, the other is NEDD4-1 autoubiquitination. […] The former reaction includes 100 nM HA-tagged Mdm2 and 200 nM MdmX, and latter reaction includes 200 nM HA-tagged NEDD4-1. After adding compound to final concentration of 10 μM, the reaction was started by incubation at 30° C. in a water bath for one hour. Then the reaction was stopped by adding SDS sample buffer, followed by SDS-PAGE and Western blot analysis for HA or NEDD4-1. In vitro assays for p53 ubiquitination by Mdm2-MdmX were performed as described previously. Briefly, reactions were carried out as described above for Mdm2 autoubiquitination except for addition of 100 nM p53. Compounds or DMSO of final concentrations of 10 μM were added in the reaction before starting the reaction at 30° C. for 1 h followed by WB of p53 with DO-1 antibody.

[10] = target: T2, Mdm2 RING domain (Homo sapiens, UniProt Q00987, DEL223-299); assay: In vitro autoubiquitination of Mdm2 RING domain (RING-RING homo-dimers); format: biochemical; conditions: compound 10 μM, Western blot
T2 construct: made in house; host or cells: insect cells (recombinant baculovirus)
Method: In vitro ubiquitination assays were performed with Mdm2 (100 nM) and MdmX (200 nM) in the presence of nothing (C), DMSO (10 μM) or indicated compounds (10 μM), followed by WB of Mdm2 with anti-HA antibody. […] In vitro ubiquitination assays were performed with Mdm2-RING domain (100 nM) in the presence of nothing (C), DMSO (10 μM) or indicated compounds (10 μM), followed by WB of Mdm2 with anti-HA. […] FLAG-MdmX and HA-Mdm2-RING domain (HA-Mdm2R) were incubated in vitro in the presence of nothing (positive control), or DMSO (10 μM) or indicated compounds (10 μM), followed by pulldown with anti-FLAG-beads (M2) and WB of MdmX and Mdm2-RING domain with anti-FLAG and anti-HA antibodies respectively. The negative control (Neg) contains all components as in positive control sample except for missing of FLAG-MdmX.
To directly evaluate the ability of these compounds in inhibiting Mdm2-MdmX interaction, we performed in vitro pulldown experiments using recombinant FLAG-MdmX and HA-Mdm2RING proteins. After incubation of the two proteins in test tubes in the presence or absence of test compounds for 30 min at RT, FLAG-MdmX was pulled down with anti-FLAG beads followed by detection of MdmX-bound HA-Mdm2RING domain by Western blotting for HA-tag.
as §1

[11] = system: NALM6-shp53 cells; assay: Apoptosis markers in NALM6-shp53 cells (Western blot); format: cell-based; conditions: NALM6-shp53 versus NALM6, 24 h
Text: Actin was the loading control.

T2 sequence (Q00987 with tags, fused parts or gaps isoform Q00987-2 DEL28-104): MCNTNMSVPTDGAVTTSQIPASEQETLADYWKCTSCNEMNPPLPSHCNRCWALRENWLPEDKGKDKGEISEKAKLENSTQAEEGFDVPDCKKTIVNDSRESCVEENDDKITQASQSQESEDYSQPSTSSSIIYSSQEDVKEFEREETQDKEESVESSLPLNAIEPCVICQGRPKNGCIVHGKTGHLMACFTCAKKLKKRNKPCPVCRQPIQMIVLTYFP

## COc1ccc(C2=N[C@@H](c3ccc(Cl)cc3)[C@@H](c3ccc(Cl)cc3)N2C(=O)N2CCNC(=O)C2)c(OC(C)C)c1 [Nutlin3a, reference compound]
[1]
  effect on MdmX level in HCT8 cells: not obvious
[2]
  IC50: 1270 nM
[3]; 1 μM, time course
  PUMA induction in NALM6 cells: stronger p53 accumulation and PUMA induction than MMRi64
[3]; 1 μM, time course to 24 h
  p21 induction in NALM6 cells: strong induction of growth-arresting effector p21
[3]; Western blot
  effect on Mdm2 expression in NALM6 cells: strong induction of Mdm2 protein
  effect on MdmX levels in NALM6 cells: slightly decreased MdmX levels
[4]; 0.5 μM, 48 h
  sub-G1 population: 0.4%
[4]; 1 μM, 48 h
  sub-G1 population: 0.8%
[4]; 2 μM, 48 h
  sub-G1 population: 3.0%
[4]; 2 μM, single treatment, combination experiment
  sub-G1 population: 1.3%

## COc1cc([C@@H]2c3cc4c(cc3[C@@H](O[C@@H]3O[C@@H]5CO[C@@H](C)O[C@H]5[C@H](O)[C@H]3O)[C@H]3COC(=O)[C@H]23)OCO4)cc(OC)c1O [Etoposide, etoposide]
[5]
  IC50: 6300 nM
[5]; therapeutic window, CFU-GM IC50 versus RL4RH IC50
  TW BM/CC, RL4RH: −19x
[2]; listed as marked (nM)
  IC50: 2.23 nM
[6]
  fold more toxic to normal mouse bone marrow cells: 5 fold
  fold more toxic to normal mouse bone marrow cells relative to RRCLs: 5-20 fold
  IC50: 320 nM
[7]; 72 h, listed as marked (nM), read-out: IC50 of Compounds, NALM6-shp53
  IC50: 19.9 nM
[7]; IC50 NALM6-shp53 versus NALM6, 72 h
  Fold change: 9x
[8]
  IC50: 1700 nM
[8]; therapeutic window, CFU-GM IC50 versus Raji4RH IC50
  TW BM/CC, Raji4RH: −5x

## Oc1c(C(Nc2ccccn2)c2ccccc2Br)cc(Cl)c2cccnc12 (stereo not shown) [MMRi65]
[9]
  inhibition of Mdm2 autoubiquitination stimulated by MdmX: inhibit
[10]
  inhibition of autoubiquitination of Mdm2 RING domain (RING-RING homo-dimers): do not inhibit

## Oc1c(C(Nc2ccccn2)c2cccc(Cl)c2Cl)ccc2cccnc12 (stereo not shown) [MMRi62]
[9]
  inhibition of Mdm2 autoubiquitination stimulated by MdmX: inhibit
[10]
  inhibition of autoubiquitination of Mdm2 RING domain (RING-RING homo-dimers): do not inhibit

## Oc1c(C(Nc2ccccn2)c2ccc(Cl)c(Cl)c2)ccc2cccnc12 (stereo not shown) [MMRi61]
[9]
  inhibition of Mdm2 autoubiquitination stimulated by MdmX: inhibit
[10]
  inhibition of autoubiquitination of Mdm2 RING domain (RING-RING homo-dimers): do not inhibit

## Cc1ccnc(NC(c2cccc(Cl)c2Cl)c2ccc3cccnc3c2O)c1 (stereo not shown) [MMRi64]
[5]
  IC50: 1000 nM
[2]
  IC50: 145 nM
[6]
  IC50: 1600 nM
[11]
  effect of shRNA knockdown of p53 on apoptosis induction: did not affect apoptosis induction
[4]; 0.2 μM, single treatment, combination experiment
  sub-G1 population: 0.73%
[4]; 0.4 μM, single treatment, combination experiment
  sub-G1 population: 2.5%
[4]; 0.5 μM, 48 h
  sub-G1 population: 7.3%
[4]; 1 μM, 48 h
  sub-G1 population: 20%
[8]
  IC50: 180 nM

## Oc1c(C(Nc2ccccn2)c2cccc(Br)c2)cc(Cl)c2cccnc12 (stereo not shown) [MMRi63]
[9]
  inhibition of Mdm2 autoubiquitination stimulated by MdmX: inhibit
[10]
  inhibition of autoubiquitination of Mdm2 RING domain (RING-RING homo-dimers): do not inhibit
